Assay results published in patent US20260306453A1, “FORMULATIONS CONTAINING TRYPTAMINE DERIVATIVES AND USES THEREOF” (priority 2023, published 2026).
Several values for one entry are separate records, joined by “and”; a condition that tells them apart may be missing. Equal entries are not always repeated. Where two headings read alike, the source gives them in different places.

Experiments:
[1] = assay type: in vivo; details: rat
Protocol: (§1) The rat PK (FIG. 6) was assessed with an oral dose of 10 mg/kg and intravenously at 1 mg/kg. […] The PK and brain concentrations were assessed in cohorts of 3 […] for each dosing group and between the plasma vs brain concentrations. For 10 mg/kg oral dosing, the PK parameters are outlined in Table 16 below.
1 mg/kg IV dosing, the PK parameters are outlined in Table 17.

[2] = assay type: in vivo; details: rat, IV 1 mg/kg of 2-Br-4-AcO-DMT * HBr, 4 h, individual rat
Protocol: as §1
The brain vs. plasma concentrations from oral and IV doses of 2-Br-4-ACO-DMT*HBr are listed in Table 18 via detection of active 2-Br-4-OH-DMT.

[3] = test system: mice; experiment: Reduction in alcohol consumption; assay type: in vivo, mouse; details: addicted mice
From the text: In order to test for the ability to curb alcohol consumption, mice were given 8-20%/alcohol ab libitum for two weeks. The results of alcohol consumption were monitored over two weeks after daily dosing of test compound in relation to positive control (4-AcO-DMT). Further studies extended the experiment to 60 days for three different doses while only dosing the mice every 3 days.

[4] = test system: cytokine interleukin 6 (IL-6); experiment: IL-6 quantification in HT22 mouse hippocampal neuronal cells; assay type: cell-based; details: LPS stressed, HBr salt, 24 hours
From the text: (§2) For neuroplasticity, brain-derived neurotrophic factor (BDNF; FIGS. 3B1 and 3B2) and for inflammation, cytokine interleukin 6 (IL-6; FIGS. 3A1 and 3A2) and TNFα (FIGS. 3C1 and 3C2), were quantified with and without proinflammatory treatment of lipopolysaccharide (LPS). LPS-induced inflammation is a model for neuroinflammation similar to what is seen in patients with neurodegenerative disorders. […] IL-6 is elevated in patients with frontotemporal dementias and other neurodegenerative disorders and especially in patients with disinhibition.

[5] = test system: brain-derived neurotrophic factor (BDNF); experiment: BDNF quantification in HT22 mouse hippocampal neuronal cells; assay type: cell-based; details: HT22 control cells (no LPS); HBr salt; 24 hours
From the text: as §2

[6] = test system: metabotropic glutamate receptor 2 (mGlu2); experiment: Brain tissue mGlu2 protein expression in prefrontal cortex after in vivo treatment; design: species or system mouse; details: male C57BL/6J mice, 25 mg/kg daily 18 days
From the text: The expression of metabotropic glutamate receptor 2 (mGlu2) in the prefrontal cortex was quantified following in vivo mouse studies. Regulation of the metabotropic glutamate receptor 2 (mGlu2) levels in alcohol seeking rats can reduce relapse behavior.

[7] = test system: TNFα; experiment: TNFα quantification in HT22 mouse hippocampal neuronal cells; assay type: cell-based; details: LPS stressed, HBr salt, 24 hours
From the text: as §2

Q: For CN(C)CCc1c(Br)[nH]c2cccc(O)c12 [2-Br-4-OH-DMT, 2-bromo-3-(2-(dimethylamino)ethyl)-1H-indol-4-ol], which “AUC Extr” value ([1]; 1 mg/kg IV of 2-Br-4-AcO-DMT * HBr, individual rat, 1 mg/kg) is on record?
A: 7.66% and 4.06% and 4.54%

Q: What about the “AUC Extr” value ([1]; 1 mg/kg IV of 2-Br-4-AcO-DMT * HBr, mean of 3 rats) of the same compound?
A: 5.42%

Q: What about the “AUC Extr” value ([1]; 10 mg/kg PO of 2-Br-4-AcO-DMT * HBr, mean of 3 rats) of the same compound?
A: 4.50%

Q: And the “Plasma Concentration” value [2]?
A: BLOQ

Q: With CC(=O)Oc1cccc2[nH]c(Br)c(CCN(C)C)c12 [drawing 37] as the compound, how does the “Alcohol Consumption, effective dose range” value [3] read?
A: 5 to 40 mg/kg

Q: Which results are given for CC(=O)Oc1cccc2[nH]c(Br)c(CCN(C)C)c12 [2-Br-4-AcO-DMT, 2-bromo-3-(2-(dimethylamino)ethyl)-1H-indol-4-yl acetate]?
A: IL-6 level [4]: reduces IL-6; BDNF level [5]: increases neuroplasticity marker BDNF in the control cells; mGluR2 expression reduction compared with psilacetin ([6]; n=5-6, relative to actin, normalized to vehicle): exceeding the effect of psilacetin; mGluR2 expression, unstressed mice ([6]; no-stress, prefrontal cortex): reduced expression of mGluR2; mGluR2 expression, stressed mice ([6]; tube restraint, prefrontal cortex): reduced expression of mGluR2; TNFα level [7]: reduces IL-6 and TNFα in the stressed LPS cells
